# In patent publication US4316894A, “Antibiotic SF-1130-x3 3 substance and production and use thereof” (Meiji Seika Kaisha, Ltd., priority 1979, dated 1982):
# Tests used:
# [1] = Suppression of elevation of blood sugar level in mice given starch or sucrose orally; assay type: in vivo, ICR-strain male mice; settings: test drug 10 mg/kg oral (dose of the x1 + x2 mixture not stated), 30 minutes after administration, ICR male mice, six per group
# Method: The test was carried out by the following procedure: Test animal was ICR-strain male mice (six mice per group, weighing 25 g in average) which had been abstained from water for 20 hours. 1 g/kg of starch or 2.5 g/kg of sucrose was orally given to the mice. At the same time, 10 mg/kg of the compound of this invention or 10 mg/kg of deoxynojirimycin as a comparative drug was orally administered to these mice. 30 minutes after the administration, the glucose level in blood was measured.
# α-glucosidase = experiment: Determination of the activity of inhibiting α-glucosidase; assay type: biochemical, pig; settings: measured in the same way as above; read-out: ID50 values (comparison substances, measured in the same way as above)
# Excerpt: The compound of this invention is useful for highly inhibiting the enzymatic reaction of glucosidase and particularly for inhibiting the enzymatic reaction of α-glucosidase as well as the enzymatic reaction of saccharase. Such the inhibitory activity of the compound of this invention may be estimated according to the following procedure with the α-glucosidase prepared from ileum mucosa of pig as disclosed in the literature "Acta Chem. Scand." vol. 12, page 1997 (1958).
# (1) Determination of the activity of inhibiting α-glucosidase. There are prepared the following four solutions:
# Solution A: A solution of the enzyme (α-glucosidase) having appropriately been diluted to a desired enzyme concentration with 0.1 M maleate buffered solution (pH 6.0)
# Solution B: 0.1 M maleate buffered solution (pH 6.0)
# Solution C: An aqueous solution of 0.014 M p-nitrophenyl-α-D-glycoside (as the substrate) in water
# Solution D: An aqueous solution of 0.1 M sodium carbonate in water […]
# In the above assay, degree (%) of inhibition for the inhibitor sample to the α-glucosidase is calculated according to the following equation: […]
IC50 (α-glucosidase) [µM],SMILES,"Blood sugar level, groups receiving starch ([1]; starch 1 g/kg oral) [mg/dL]","Blood sugar level, groups receiving sucrose ([1]; sucrose 2.5 g/kg oral) [mg/dL]"
,OC[C@H]1NC[C@H](O)[C@@H](O)[C@@H]1O [Deoxynojirimycin],101 ± 22.9,93 ± 15.4
360,OC[C@H]1NC(O)[C@H](O)[C@@H](O)[C@@H]1O (stereo partly drawn) [nojirimycin],,
